The source of these data is PubChem BioAssay (NCI).

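Each compound was tested at five concentrations against cells in 96-well plates for 48 hours. Here, GI50 denotes the concentration required for 50% inhibition of growth. The concentration for full growth arrest is given as TGI.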 *1 amine or outer side, *2 acyl side, *3 side chain or, on linkers, in order; H or OH if unused. Where a SMILES comes first, the peptide text is derived from it. [ ]: non-standard residue; d: D form. X32 = C[C@H](N[*:1])C(=O)C(C)(C)C(=O)[*:2]; Hmpa(2S,3S) = CC[C@H](C)[C@H](O)C(=O)O; NMeY = CN[C@@H](Cc1ccc(O)cc1)C(=O)O; NMeL = CN[C@@H](CC(C)C)C(=O)O; NMeV = CN[C@H](C(=O)O)C(C)C; βAla = NCCC(=O)O

Test systems include A498 renal; HS 578T breast; RPMI-8226 leukemia; OVCAR-5 ovarian; OVCAR-8 ovarian; CCRF-CEM leukemia; SNB-75 CNS; NCI-H226 lung; K-562 leukemia; PC-3 prostate.
What all share (assay): inhibition of tumour cell growth, NCI panel, 48 h

As for `CCCCn1c2c(n(CCCC)c1=S)-c1c(n(CCCC)c(=S)n1CCCC)SSc1c(n(CCCC)c(=S)n1CCCC)-c1c(n(CCCC)c(=S)n1CCCC)SSc1c(n(CCCC)c(=S)n1CCCC)-c1c(n(CCCC)c(=S)n1CCCC)SS2`, the TGI in the experiment with A498 renal was over 50 µM; in the experiment with HS 578T breast, over 50 µM; with RPMI-8226 leukemia, over 50 µM; with OVCAR-5 ovarian, 25.4 µM; in the experiment on OVCAR-8 ovarian, over 13.6 µM; in the experiment on CCRF-CEM leukemia, over 14.7 µM. Moreover, the TGI is over 50 µM with SNB-75 CNS, over 38.4 µM in the experiment with NCI-H226 lung, over 50 µM in the experiment with K-562 leukemia and 18.9 µM with PC-3 prostate.
With `Cc1ccc(NC(=O)c2cc(S(=O)(=O)Nc3nc4ncccc4[nH]3)c(SSc3cc(Cl)c(C(=O)Nc4ccc(C)cc4)cc3S(=O)(=O)Nc3nc4ncccc4[nH]3)cc2Cl)cc1`, the TGI in the experiment on A498 renal, in the experiment with HS 578T breast, in the experiment with RPMI-8226 leukemia, in the experiment on OVCAR-5 ovarian, in the experiment on OVCAR-8 ovarian and in the experiment on CCRF-CEM leukemia was over 100 µM each time. The TGI in the experiment with SNB-75 CNS, with NCI-H226 lung, with K-562 leukemia and in the experiment with PC-3 prostate was over 100 µM throughout.
Turning to `COc1cc(/C=C/C(=O)C2(C(=O)/C=C/c3cc(OC)c(OC)c(OC)c3)CCCCC2)cc(OC)c1OC`, the TGI was over 100 µM in the experiment with A498 renal; 89.8 µM in the experiment with HS 578T breast; over 100 µM in the experiment with RPMI-8226 leukemia; over 100 µM with OVCAR-5 ovarian; 65.2 µM in the experiment with OVCAR-8 ovarian; over 100 µM in the experiment with CCRF-CEM leukemia. Also, the TGI with SNB-75 CNS, in the experiment with NCI-H226 lung, in the experiment with K-562 leukemia and in the experiment with PC-3 prostate was over 100 µM each time.
Take `CCOC(=O)NC(Nc1ccc(C(=O)OCC)cc1)(C(F)(F)F)C(F)(F)F`: the TGI in the experiment on A498 renal, with HS 578T breast, in the experiment on RPMI-8226 leukemia, in the experiment on OVCAR-5 ovarian, in the experiment with OVCAR-8 ovarian and with CCRF-CEM leukemia was over 100 µM throughout. For the same compound, the TGI with SNB-75 CNS, in the experiment with NCI-H226 lung, in the experiment on K-562 leukemia and in the experiment with PC-3 prostate was over 100 µM throughout.
Take `CC(=O)OCC1OC(n2c(-c3ccc(C)cc3)cc(-c3ccccc3)c(C#N)c2=S)C(OC(C)=O)C(OC(C)=O)C1OC(C)=O` (stereo unspecified): the TGI in the experiment with A498 renal, in the experiment with HS 578T breast, with RPMI-8226 leukemia, in the experiment with OVCAR-5 ovarian, in the experiment with OVCAR-8 ovarian and with SNB-75 CNS was over 100 µM in each case. Further, the TGI in the experiment on NCI-H226 lung, with K-562 leukemia and in the experiment with PC-3 prostate was over 100 µM in each case.
Turning to `O=C(NCCCCCCNC(=O)c1cc(-c2ccccc2)nc2ccccc12)c1cc(-c2ccccc2)nc2ccccc12`, the TGI with A498 renal, with HS 578T breast, with RPMI-8226 leukemia, in the experiment on OVCAR-5 ovarian, in the experiment with OVCAR-8 ovarian and in the experiment on CCRF-CEM leukemia was over 100 µM each time. For the same compound, the TGI in the experiment on SNB-75 CNS, in the experiment with NCI-H226 lung, in the experiment with K-562 leukemia and with PC-3 prostate was over 100 µM each time.
With `CCCCCCCCCCCCC(O)[C@H]1CC[C@H](C(O)CCCCCC(=O)CCCCC2CC(C(C)=O)C(=O)O2)O1` (stereo partly specified), the GI50 in the experiment on A498 renal was 2.62 µM; in the experiment with HS 578T breast, 4.42 µM; in the experiment on RPMI-8226 leukemia, 2.12 µM; with OVCAR-8 ovarian it was 4.34 µM; in the experiment on CCRF-CEM leukemia, 2.15 µM; in the experiment with SNB-75 CNS, 7.11 µM. Moreover, the figures for the GI50 with NCI-H226 lung, in the experiment with K-562 leukemia and in the experiment on PC-3 prostate were 3.48 µM, 1.91 µM and 3.55 µM, respectively. In addition, the TGI was 36.6 µM with A498 renal; 51.2 µM in the experiment on HS 578T breast; over 27.8 µM in the experiment with RPMI-8226 leukemia; 50 µM in the experiment on OVCAR-5 ovarian; over 53.9 µM in the experiment on OVCAR-8 ovarian; over 45.6 µM in the experiment on CCRF-CEM leukemia. The TGI with SNB-75 CNS is 59.3 µM; in the experiment with NCI-H226 lung, 46.1 µM; in the experiment with K-562 leukemia, over 63.6 µM; in the experiment on PC-3 prostate it was 28.1 µM.
As for `Cc1ccc(S(=O)(=O)N2CCCSCC2)cc1`, the TGI in the experiment with A498 renal, in the experiment with HS 578T breast, with OVCAR-8 ovarian, in the experiment on CCRF-CEM leukemia, in the experiment with SNB-75 CNS and with NCI-H226 lung was over 100 µM throughout. The TGI in the experiment on K-562 leukemia and in the experiment with PC-3 prostate was over 100 µM each time.
For `CC1=C(C)Cc2c(O)ccc(O)c2C1`, the TGI in the experiment with A498 renal is over 100 µM; with HS 578T breast, 33.6 µM; in the experiment with RPMI-8226 leukemia, 27.2 µM; with OVCAR-5 ovarian it was 38.6 µM; with OVCAR-8 ovarian it was 32.1 µM; in the experiment on CCRF-CEM leukemia, 16.2 µM. Also, the TGI with SNB-75 CNS stood at 31.3 µM; with NCI-H226 lung, 42.1 µM; in the experiment with K-562 leukemia, 49.8 µM; with PC-3 prostate, 32.1 µM.
Regarding `O=[N+]([O-])c1ccc(N/N=C/c2ccc(OCCCCCCCCCCCO)cc2)c([N+](=O)[O-])c1`, the TGI with A498 renal is over 100 µM; in the experiment on HS 578T breast it was 6.5 µM; with RPMI-8226 leukemia, over 100 µM; with OVCAR-5 ovarian, over 56.1 µM; in the experiment on OVCAR-8 ovarian it was 9.86 µM; in the experiment with CCRF-CEM leukemia it was over 44.5 µM. In addition, the TGI is 4.27 µM in the experiment with SNB-75 CNS, 37.3 µM with NCI-H226 lung, 2.97 µM in the experiment on K-562 leukemia and 14.7 µM in the experiment with PC-3 prostate.
With `CC[C@H](C)[C@@H]1OC(=O)CCNC(=O)[C@@H](C)NC(=O)C(C)(C)C(=O)[C@H](C)NC(=O)[C@H](Cc2ccc(OC)cc2)N(C)C(=O)[C@H](C(C)C)N(C)C(=O)CNC(=O)[C@H](CC(C)C)N(C)C(=O)CNC1=O` (cyclo(G[NMeL]G[NMeV][NMeY](Me)[X32][dA][βAla][Hmpa(2S,3S)])), the TGI with A498 renal is 5.91 µM; with HS 578T breast, 20.8 µM; in the experiment with RPMI-8226 leukemia, 11.1 µM; in the experiment on OVCAR-5 ovarian, over 31.2 µM; in the experiment on OVCAR-8 ovarian, 23.7 µM; with CCRF-CEM leukemia it was 2.2 µM. Further, the TGI in the experiment with SNB-75 CNS was 3.52 µM; with NCI-H226 lung, over 38.2 µM; with K-562 leukemia it was over 24.5 µM; with PC-3 prostate, over 31.5 µM.
